According to patent US4171367A, “Pyrazolyl amino imidazolines” (Abbott Laboratories, priority 1977, dated 1979):
Structures can show the parent of a compound that is named as a salt. Where two headings read alike, the source gives them in different places.

Tested on: reverse passive Arthus reaction
Assay: reverse passive Arthus reaction test in rats (anti-inflammatory effect, oral)
Format: in vivo, rat (male Sprague-Dawley)
Details: 4 h, read-out: Percent Inhibition of Arthus Reaction; for inhibition in vivo at 25 mg/kg: oral dose 25 mg/kg
Text: The anti-inflammatory activity of the compounds of this invention was established using the reverse passive Arthus reaction in the rat as described by G. W. Carter and R. A. Krause in Federation Proceedings, Vol. 35, p. 774, 1976. The carrageenin rat paw edema test (Winter et al, Proc. Soc. Exp. Biol. Med., 111, 554, 1962) can be used to establish anti-inflammatory activity, however, unlike carrageenin induced edema, the Arthus reaction is a well characterized immune reaction which bears close resemblance to the pathogenisis of rheumatoid arthritis.
The Arthus reaction represents one of the oldest and best studied models of immunological injury. It is produced by the injection of antigen locally into a hyperimmunized animal or by the injection of a small amount of antibody into the skin of an animal that has just previously been given a large amount of soluble antigen intravenously. In both cases the antigen and antibody become deposited in the walls of small venules. Plasma complement is rapidly bound and activated. Within a few hours neutrophils (PMNs) accumulate, resulting in disruption of the basement membrane of vessel walls and marked edema and hemorrage in the surrounding tissue.
The reverse passive Arthus reaction test in rats is conducted as follows. Male Sprague-Dawley rats weighing approximately 130-160 g. are used, 4 rats per group. All animals are injected intravenously with 0.5 ml. 0.075% Bovine Serum Albumin (B.S.A.)+0.2% Evans Blue solution. Each rat then receives an oral dose of drug; one drug is administered per group.
Thirty minutes subsequent to drug dosing, each animal is injected intradermally with 0.05 ml. 1.44% Anti-B.S.A. into the dorsal skin. Four hours later the animals are sacrificed, the dorsal skin reflexed, and the lesion excised. Two perpendicular diameters of each lesion are measured. The average diameters of the lesions from the treated groups are compared with the average diameters from the control group to determine any drug effect.
The anti-inflammatory activity of representative compounds of this invention, as determined by the reverse passive Arthus reaction test in rats, is summarized in Table I.

c1cc(NC2=NCCN2)n(C2CCCCC2)n1 [R1=drawing 5, R2=H, R3=H, R4=H, 2-(1-Cyclohexyl-5-pyrazolyl)-amino-2-imidazoline]
inhibition in vivo at 100 mg/kg (oral dose 100 mg/kg, rat): 15%

Brc1cnn(-c2ccccc2)c1NC1=NCCN1 [R1=C6H5, R2=H, R3=Br, R4=H, 2-(4-Bromo-1-phenyl-5-pyrazolyl)-amino-2-imidazoline hydrochloride]
inhibition in vivo at 25 mg/kg (rat): 41%
inhibition in vivo at 100 mg/kg (oral dose 100 mg/kg, rat): 59%

CC(=O)N1CCN=C1Nc1c(C)nn(C)c1Cl [R1=Me, R2=Me, R3=(5) C1, R4=COCH3, 1-acetyl-2-(5-chloro-1,3-dimethyl-4-pyrazolyl) amino-2-imidazoline hydrochloride]
inhibition in vivo at 25 mg/kg (rat): 39%
inhibition in vivo at 100 mg/kg (oral dose 100 mg/kg, rat): 63%

CC(C)c1cc(NC2=NCCN2)n(C(C)C)n1 [R1=Me2CH, R2=Me2CH, R3=H, R4=H, 2-(1,3-Di-isopropyl-5-pyrazolyl)-amino-2-imidazoline]
inhibition in vivo at 100 mg/kg (oral dose 100 mg/kg, rat): 11%

CC(=O)N1CCN=C1Nc1cc(C(C)C)nn1C [R1=Me, R2=Me2CH, R3=H, R4=COCH3, 1-Acetyl-2(3-isopropyl-1-methyl-5-pyrazolyl)amino-2-imidazoline]
inhibition in vivo at 100 mg/kg (oral dose 100 mg/kg, rat): 18%

CC(C)c1nn(C)c(NC2=NCCN2)c1Br [R1=Me, R2=Me2CH, R3=Br, R4=H, 2(4-Bromo-3-isopropyl-1-methyl-5-pyrazolyl)amino-2-imidazoline hydrobromide]
inhibition in vivo at 50 mg/kg (Rattus norvegicus, po): 37%
inhibition in vivo at 100 mg/kg (Rattus norvegicus, po): 42%

Cc1nn(C)c(NC2=NCCN2)c1Br [R1=Me, R2=Me, R3=Br, R4=H, 2(4-Bromo-1,3-dimethyl-5-pyrazolyl)-amino-2-imidazoline]
inhibition in vivo at 50 mg/kg (oral dose 50 mg/kg, rat): 45%

Cc1cc(NC2=NCCN2)n(C(C)C)n1 [R1=Me2CH, R2=Me, R3=H, R4=H, 2-(1-Isopropyl-3-methyl-5-pyrazolyl)amino-2-imidazoline]
inhibition in vivo at 50 mg/kg (oral dose 50 mg/kg, rat): 20%
inhibition in vivo at 100 mg/kg (oral dose 100 mg/kg, rat): 29%

Cc1nn(C)c(Cl)c1NC1=NCCN1 [R1=Me, R2=Me, R3=(5) (C1), R4=H, 2-(4-chloro-1,3-dimethyl-4-pyrazolyl)-amino-2-imidazoline hydrochloride]
inhibition in vivo at 10 mg/kg (oral dose 10 mg/kg, rat): 49%
inhibition in vivo at 25 mg/kg (rat): 64%
inhibition in vivo at 100 mg/kg (oral dose 100 mg/kg, rat): 69%

CC(C)c1cc(NC2=NCCN2)n(C)n1 [R1=Me, R2=Me2CH, R3=H, R4=H, 2(3-Isopropyl-1-methyl-5-pyrazolyl)-amino-2-imidazoline]
inhibition in vivo at 50 mg/kg (oral dose 50 mg/kg, rat): 33%
inhibition in vivo at 100 mg/kg (oral dose 100 mg/kg, rat): 42%

Cc1nn(C)c(NC2=NCCN2)c1I [R1=Me, R2=Me, R3=I, R4=H, 2(1,3-Dimethyl-4-iodo-5-pyrazolyl)-amino-2-imidazoline]
inhibition in vivo at 100 mg/kg (oral dose 100 mg/kg, rat): 43%

Cc1nn(CCC(C)C)c(NC2=NCCN2)c1Br [R1=Me2CHCH2CH2, R2=Me, R3=Br, R4=H, 2[4-Bromo-1-(3-methylbutyl)-3-methyl-5-pyrazolyl]amino-2-imidazoline hydrochloride]
inhibition in vivo at 100 mg/kg (Rattus norvegicus, po): 16%

Cc1cc(NC2=NCCN2)n(C)n1 [R1=Me, R2=Me, R3=H, R4=H, 2(1,3-Dimethyl-5-pyrazolyl) amino-b 2-imidazoline]
inhibition in vivo at 100 mg/kg (oral dose 100 mg/kg, rat): 55%

c1ccc(-c2cc(NC3=NCCN3)n(-c3ccccc3)n2)cc1 [R1=C6H5, R2=C6H5, R3=H, R4=H, 2(1,3-Diphenyl-5-pyrazolyl) amino-2-imidazoline]
inhibition in vivo at 100 mg/kg (oral dose 100 mg/kg, rat): 32%

Cc1cc(NC2=NCCN2)n(CCC(C)C)n1 [R1=Me2CHCH2CH2, R2=Me, R3=H, R4=H, 2[1-(3-Methylbutyl)-3-methyl-5-pyrazolyl]amino-2-imidazoline]
inhibition in vivo at 100 mg/kg (Rattus norvegicus, po): 15%

CC(=O)N1CCN=C1Nc1cc(C)nn1C(C)C [R1=Me2CH, R2=Me, R3=H, R4=COCH3, 1-Acetyl-2(1-isopropyl-3-methyl-5-pyrazolyl)amino-2-imidazoline]
inhibition in vivo at 50 mg/kg (oral dose 50 mg/kg, rat): 30%
inhibition in vivo at 100 mg/kg (oral dose 100 mg/kg, rat): 39%

CC(=O)N1CCN=C1Nc1ccnn1-c1ccccc1 [R1=C6H5, R2=H, R3=H, R4=COCH3, 1-Acetyl-2-(1-phenyl-5-pyrazolyl)-amino-2-imidazoline]
inhibition in vivo at 100 mg/kg (oral dose 100 mg/kg, rat): 70%

CC(C)c1nn(C(C)C)c(NC2=NCCN2)c1Br [R1=Me2CH, R2=Me2CH, R3=Br, R4=H, 2-(4-Bromo-1,3-di-isopropyl-5-pyrazolyl)amino-2-imidazoline hydrobromide]
inhibition in vivo at 100 mg/kg (Rattus norvegicus, po): 27%

Brc1c(-c2ccccc2)nn(-c2ccccc2)c1NC1=NCCN1 [R1=C6H5, R2=C6H5, R3=Br, R4=H, 2(4-Bromo-1,3-diphenyl-5-pyrazolyl) amino-2-imidazoline hydrobromide]
inhibition in vivo at 100 mg/kg (oral dose 100 mg/kg, rat): 17%

Brc1cnn(C2CCCCC2)c1NC1=NCCN1 [R1=drawing 4, R2=H, R3=Br, R4=H, 2-(4-Bromo-1-cyclohexyl-5-pyrazolyl)-amino-2-imidazoline hydrochloride]
inhibition in vivo at 100 mg/kg (oral dose 100 mg/kg, rat): 15%

c1ccc(-n2nccc2NC2=NCCN2)cc1 [R1=C6H5, R2=H, R3=H, R4=H, 2-(1-Phenyl-5-pyrazolyl)-amino-2-imidazoline]
inhibition in vivo at 25 mg/kg (rat): 62%
inhibition in vivo at 100 mg/kg (oral dose 100 mg/kg, rat): 75%
